Source: PMC12380353, “MK-8527 is a novel inhibitor of HIV-1 reverse transcriptase translocation with potential for extended-duration dosing” (PLOS Biology, 2025)
Read-outs that look alike come from different tables or passages of the source.

Columns and labels:
HIV RT = target: T1, HIV RT (Human immunodeficiency virus type 1 group M subtype B, UniProt P04585); test: Iron footprinting assay of RT translocation state; format: biochemical
T1 construct: HIV RT (final concentration, 1,200 nM)
Procedure: The translocation state of RT was assessed with a site-specific iron footprinting assay adapted from previous work. Primer and template used for this assay are described in Fig 7A. The presence of Fe^2+ ions in the reaction generated hydroxyl radicals that cleaved the DNA template in a site-specific manner at the nucleotide closest to the RNase H active site. In addition to an RT inhibitor in the reaction, dTTP, the subsequent dNTP, was provided in dose titration to force the translocation of the 3′-primer terminus from the pre-translocation N-site to the post-translocation P-site.
(final concentration, 1 µM), or ddATP (final concentration, 5 µM), Td43/Pd30 pre-annealed primer and template (final concentration, 200 nM based on Cy3-labeled Td43 concentration), and dTTP titrated at various concentrations. All reagent stocks were in a base assay buffer consisting of 120 mM Tris pH 7.5, 20 mM NaCl, and 6 mM MgCl2 in nuclease-free water. […] The reaction was then heated to 37 °C for 5 min before quenching 1:1 with gel-loading dye followed by heating at 95 °C for 10 min. Samples were stored at −20 °C until being resolved by polyacrylamide gel electrophoresis with 7 M urea.

[1] = target: T2, human mitochondrial DNA polymerase γ (Homo sapiens, UniProt P54098); test: Human mitochondrial DNA polymerase γ inhibition assay; format: biochemical; settings: highest concentration tested 200 µM
T2 sequence (P54098 1-1239): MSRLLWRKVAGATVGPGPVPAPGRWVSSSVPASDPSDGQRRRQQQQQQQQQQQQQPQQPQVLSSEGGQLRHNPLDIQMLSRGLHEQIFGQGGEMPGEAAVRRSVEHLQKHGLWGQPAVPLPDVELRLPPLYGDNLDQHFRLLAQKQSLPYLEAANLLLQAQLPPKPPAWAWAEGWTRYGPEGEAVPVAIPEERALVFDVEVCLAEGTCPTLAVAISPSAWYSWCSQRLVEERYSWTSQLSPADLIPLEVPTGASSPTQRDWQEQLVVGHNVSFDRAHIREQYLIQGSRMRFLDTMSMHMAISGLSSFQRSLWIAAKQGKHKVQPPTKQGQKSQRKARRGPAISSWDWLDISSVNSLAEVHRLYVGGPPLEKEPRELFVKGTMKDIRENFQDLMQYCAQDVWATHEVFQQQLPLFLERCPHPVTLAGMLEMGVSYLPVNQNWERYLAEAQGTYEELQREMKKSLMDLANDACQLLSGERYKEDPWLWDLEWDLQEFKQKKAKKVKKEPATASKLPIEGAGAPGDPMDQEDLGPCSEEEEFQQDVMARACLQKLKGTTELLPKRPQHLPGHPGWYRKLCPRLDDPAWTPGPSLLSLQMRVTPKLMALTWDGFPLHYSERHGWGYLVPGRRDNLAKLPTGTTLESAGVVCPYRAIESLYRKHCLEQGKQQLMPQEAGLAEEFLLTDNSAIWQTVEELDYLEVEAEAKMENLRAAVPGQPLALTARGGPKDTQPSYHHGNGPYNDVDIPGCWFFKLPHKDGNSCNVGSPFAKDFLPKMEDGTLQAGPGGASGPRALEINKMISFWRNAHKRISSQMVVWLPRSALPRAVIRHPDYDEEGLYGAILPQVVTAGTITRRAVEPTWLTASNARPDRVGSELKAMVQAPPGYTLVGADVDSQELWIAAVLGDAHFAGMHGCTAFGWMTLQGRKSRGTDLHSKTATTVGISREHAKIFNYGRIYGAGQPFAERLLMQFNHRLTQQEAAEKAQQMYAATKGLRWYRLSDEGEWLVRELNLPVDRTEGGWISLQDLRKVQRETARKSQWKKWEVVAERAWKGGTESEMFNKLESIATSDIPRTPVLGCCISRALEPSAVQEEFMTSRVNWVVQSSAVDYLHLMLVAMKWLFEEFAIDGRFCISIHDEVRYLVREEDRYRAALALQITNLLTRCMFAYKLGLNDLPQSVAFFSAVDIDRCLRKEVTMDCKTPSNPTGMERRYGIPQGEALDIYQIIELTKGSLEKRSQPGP
Procedure: The activities of human DNA polymerases α, β, and γ were measured in radiolabeled nucleotide incorporation assays. TP was prepared as a 10-point titration with 3-fold serial dilution in water. Reaction buffers for the DNA polymerase α and β assays both contained 20 mM Tris pH 7.5, 10 mM MgCl2, 50 μM EDTA, 200 μg/mL bovine serum albumin (BSA), 2 mM dithiothreitol (DTT), 1.6 μM each of dNTP (dATP, dCTP, dGTP, and dTTP), 20 μCi/mL [α33P]dATP, 0.1 mg/mL gapped activated fish sperm DNA template, test compound, and 0.005 U/μL DNA polymerase α or 0.0025 U/μL DNA polymerase β. The reaction buffer for DNA polymerase γ contained 20 mM Tris pH 8, 10 mM MgCl2, 50 mM KCl, 100 μg/mL BSA, 2 mM β-mercaptoethanol, 10 μM of each dNTP (dATP, dCTP, dGTP, and dTTP), 20 μCi/mL [α33P]dATP, 0.04 mg/mL gapped activated fish sperm DNA template, test compound, and 0.0003 μg/μL DNA polymerase γ. The 50-μL reactions were incubated at room temperature for 30 min (for β and γ) or 90 min (for α) before terminating with the addition of 50 μL 500 mM EDTA. The reaction mixtures were transferred to a Millipore DE81 filter plate (EMD Millipore; Hayward, CA), washed with 0.5 M sodium phosphate pH 7.0, and dried. After addition of 40 μL scintillant to each well, the incorporation of labeled dATP was determined with a microplate counter (TopCount NXT HTS; PerkinElmer, Shelton, CA, USA).

[2] = CellTiter-Glo (CTG) cytotoxicity in MT4-GFP cells; settings: human
[3] = test system: panel of unrelated viruses; settings: all other viruses of the panel, up to highest concentration tested, 50 µM
HIV-1 = test: microbe, parasite or virus in culture; settings: Human immunodeficiency virus 1, PBMC
Procedure: IC50 values were determined, and a persistence ratio was calculated for each compound. GFP, green fluorescent protein; hpi, hours post-infection; IC50, half maximal inhibitory concentration.
Assay media in each well were then evacuated and the cells resuspended using the gentle setting on the BlueWasher (BlueCatBio; Lebanon, NH, USA). Centrifugation and wash steps were repeated to ensure removal of extracellular compound.
MT4-GFP cells were infected with WT R8 virus, and PBMCs were infected with pNLG1-P2A-GFP. […] IC50 values were determined by nonlinear 4-parameter curve fitting of the data. A persistence ratio was calculated for each compound by dividing the IC50 from variable B (IC50B) by the IC50 from variable A (IC50A).

SMILES | Translocation state of RT (HIV RT; 1 µM MK-8527-TP or ISL-TP, 5 µM ddATP, absence or presence of dTTP) | dTTP concentration above which post-translocation state products (−17) began accumulating (HIV RT; 1 µM inhibitor) | Inhibitory activity [1] | CC50 [2] | Antiviral activity or cytotoxicity [3] | IC50 (HIV-1; 48 h, read-out: Persistence assay IC50B, PBMCs) | IC50 (HIV-1; read-out: Persistence assay IC50A, PBMCs)
C#C[C@]1(COP(=O)(O)OP(=O)(O)OP(=O)(O)O)O[C@@H](n2ccc3c(N)nc(Cl)nc32)C[C@@H]1O [MK-8527-TP] | remained in a pre-translocation (−18) state | > 6.2 µM | no inhibitory activity | – | – | – | –
C#C[C@]1(CO)O[C@@H](n2ccc3c(N)nc(Cl)nc32)C[C@@H]1O [Compound 12, (2R,3S,5R)-5-(4-amino-2-chloro-7H-pyrrolo[2,3-d]pyrimidin-7-yl)-2-ethynyl-2-(hydroxymethyl)tetrahydrofuran-3-ol] | – | – | – | > 42 µM | did not display antiviral activity or cytotoxicity | 0.0181 ± 0.0048 µM | 0.0012 ± 0.0002 µM
